Reference: paper doi:10.1101/2023.10.21.563410v1 (biorxiv, 2023)
Blank lines part the entries; values can stand above or below the molecule they belong to.

Key:
MRP2 = MRP2 (Homo sapiens, UniProt Q92887); assay: fluorimetric uptake of […]; format: cell-based
hPXR = molecular target: T1, hPXR (Homo sapiens, UniProt O75469); assay: luciferase reporter gene assay; format: cell-based
T1 sequence (O75469 1-434): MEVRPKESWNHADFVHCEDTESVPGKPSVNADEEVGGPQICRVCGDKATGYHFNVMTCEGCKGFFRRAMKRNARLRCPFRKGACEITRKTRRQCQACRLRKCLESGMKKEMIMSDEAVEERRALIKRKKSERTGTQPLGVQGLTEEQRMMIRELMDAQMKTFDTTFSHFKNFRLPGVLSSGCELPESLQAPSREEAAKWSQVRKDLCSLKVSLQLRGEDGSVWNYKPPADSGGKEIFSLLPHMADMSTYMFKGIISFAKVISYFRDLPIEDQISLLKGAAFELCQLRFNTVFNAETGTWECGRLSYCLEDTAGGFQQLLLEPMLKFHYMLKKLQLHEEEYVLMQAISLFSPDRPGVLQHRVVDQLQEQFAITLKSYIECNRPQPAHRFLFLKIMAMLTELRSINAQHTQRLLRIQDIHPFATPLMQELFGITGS

OATP1B3 [1] = molecular target: T2, OATP1B3 (Homo sapiens, UniProt Q9NPD5); assay: fluorimetric uptake of fluorescein-methotrexate; format: cell-based; details: racemic compound
T2 sequence (Q9NPD5 1-702): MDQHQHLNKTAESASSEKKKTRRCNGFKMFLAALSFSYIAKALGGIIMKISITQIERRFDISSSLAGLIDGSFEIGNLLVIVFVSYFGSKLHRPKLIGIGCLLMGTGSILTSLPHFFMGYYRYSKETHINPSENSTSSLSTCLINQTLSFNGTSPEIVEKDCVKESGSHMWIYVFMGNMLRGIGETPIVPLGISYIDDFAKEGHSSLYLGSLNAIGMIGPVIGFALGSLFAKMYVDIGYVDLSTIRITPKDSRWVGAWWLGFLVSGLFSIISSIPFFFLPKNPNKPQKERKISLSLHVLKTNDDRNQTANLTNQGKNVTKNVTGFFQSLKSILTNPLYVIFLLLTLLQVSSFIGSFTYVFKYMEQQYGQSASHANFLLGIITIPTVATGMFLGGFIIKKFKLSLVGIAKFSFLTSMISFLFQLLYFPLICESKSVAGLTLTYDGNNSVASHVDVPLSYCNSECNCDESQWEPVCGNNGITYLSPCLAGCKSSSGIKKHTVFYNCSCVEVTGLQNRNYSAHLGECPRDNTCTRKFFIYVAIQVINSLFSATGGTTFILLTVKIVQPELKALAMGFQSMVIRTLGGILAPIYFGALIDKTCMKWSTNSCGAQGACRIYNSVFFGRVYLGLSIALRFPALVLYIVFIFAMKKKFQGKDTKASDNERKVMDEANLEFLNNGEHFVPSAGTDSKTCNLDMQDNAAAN

OATP1B1 [2] = molecular target: T3, OATP1B1 (Homo sapiens, UniProt Q9Y6L6); assay: fluorimetric uptake of fluorescein-methotrexate; format: cell-based; details: racemic compound
T3 sequence (Q9Y6L6 1-691): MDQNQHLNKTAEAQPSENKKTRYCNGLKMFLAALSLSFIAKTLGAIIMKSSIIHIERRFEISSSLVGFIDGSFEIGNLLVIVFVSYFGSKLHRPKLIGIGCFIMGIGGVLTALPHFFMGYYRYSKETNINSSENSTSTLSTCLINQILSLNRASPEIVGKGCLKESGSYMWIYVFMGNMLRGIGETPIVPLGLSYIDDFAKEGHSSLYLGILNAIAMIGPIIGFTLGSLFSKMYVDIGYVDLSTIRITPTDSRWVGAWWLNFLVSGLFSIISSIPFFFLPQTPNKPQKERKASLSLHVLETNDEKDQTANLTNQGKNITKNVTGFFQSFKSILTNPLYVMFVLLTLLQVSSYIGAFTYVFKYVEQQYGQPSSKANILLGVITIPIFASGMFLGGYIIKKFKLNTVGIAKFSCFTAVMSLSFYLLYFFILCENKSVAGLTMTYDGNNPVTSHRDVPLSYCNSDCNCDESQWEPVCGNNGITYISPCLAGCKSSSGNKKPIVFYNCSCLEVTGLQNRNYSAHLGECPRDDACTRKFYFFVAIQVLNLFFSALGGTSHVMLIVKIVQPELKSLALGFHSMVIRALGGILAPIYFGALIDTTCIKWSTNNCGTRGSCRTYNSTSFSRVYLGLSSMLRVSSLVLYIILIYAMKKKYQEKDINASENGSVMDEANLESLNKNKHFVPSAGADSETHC

BSEP = BSEP (Homo sapiens, UniProt O95342); assay: uptake of 3H-taurocholic acid in membrane vesicles, scintillation counting; format: biochemical; details: read-out: % of control activity at 10 μM
OATP1B1 [3] = molecular target: T3, OATP1B1; assay: fluorimetric uptake of fluorescein-methotrexate; format: cell-based
OATP1B3 [4] = molecular target: T2, OATP1B3; assay: fluorimetric uptake of fluorescein-methotrexate; format: cell-based

Sequence of MRP2 (Q92887 whole entry): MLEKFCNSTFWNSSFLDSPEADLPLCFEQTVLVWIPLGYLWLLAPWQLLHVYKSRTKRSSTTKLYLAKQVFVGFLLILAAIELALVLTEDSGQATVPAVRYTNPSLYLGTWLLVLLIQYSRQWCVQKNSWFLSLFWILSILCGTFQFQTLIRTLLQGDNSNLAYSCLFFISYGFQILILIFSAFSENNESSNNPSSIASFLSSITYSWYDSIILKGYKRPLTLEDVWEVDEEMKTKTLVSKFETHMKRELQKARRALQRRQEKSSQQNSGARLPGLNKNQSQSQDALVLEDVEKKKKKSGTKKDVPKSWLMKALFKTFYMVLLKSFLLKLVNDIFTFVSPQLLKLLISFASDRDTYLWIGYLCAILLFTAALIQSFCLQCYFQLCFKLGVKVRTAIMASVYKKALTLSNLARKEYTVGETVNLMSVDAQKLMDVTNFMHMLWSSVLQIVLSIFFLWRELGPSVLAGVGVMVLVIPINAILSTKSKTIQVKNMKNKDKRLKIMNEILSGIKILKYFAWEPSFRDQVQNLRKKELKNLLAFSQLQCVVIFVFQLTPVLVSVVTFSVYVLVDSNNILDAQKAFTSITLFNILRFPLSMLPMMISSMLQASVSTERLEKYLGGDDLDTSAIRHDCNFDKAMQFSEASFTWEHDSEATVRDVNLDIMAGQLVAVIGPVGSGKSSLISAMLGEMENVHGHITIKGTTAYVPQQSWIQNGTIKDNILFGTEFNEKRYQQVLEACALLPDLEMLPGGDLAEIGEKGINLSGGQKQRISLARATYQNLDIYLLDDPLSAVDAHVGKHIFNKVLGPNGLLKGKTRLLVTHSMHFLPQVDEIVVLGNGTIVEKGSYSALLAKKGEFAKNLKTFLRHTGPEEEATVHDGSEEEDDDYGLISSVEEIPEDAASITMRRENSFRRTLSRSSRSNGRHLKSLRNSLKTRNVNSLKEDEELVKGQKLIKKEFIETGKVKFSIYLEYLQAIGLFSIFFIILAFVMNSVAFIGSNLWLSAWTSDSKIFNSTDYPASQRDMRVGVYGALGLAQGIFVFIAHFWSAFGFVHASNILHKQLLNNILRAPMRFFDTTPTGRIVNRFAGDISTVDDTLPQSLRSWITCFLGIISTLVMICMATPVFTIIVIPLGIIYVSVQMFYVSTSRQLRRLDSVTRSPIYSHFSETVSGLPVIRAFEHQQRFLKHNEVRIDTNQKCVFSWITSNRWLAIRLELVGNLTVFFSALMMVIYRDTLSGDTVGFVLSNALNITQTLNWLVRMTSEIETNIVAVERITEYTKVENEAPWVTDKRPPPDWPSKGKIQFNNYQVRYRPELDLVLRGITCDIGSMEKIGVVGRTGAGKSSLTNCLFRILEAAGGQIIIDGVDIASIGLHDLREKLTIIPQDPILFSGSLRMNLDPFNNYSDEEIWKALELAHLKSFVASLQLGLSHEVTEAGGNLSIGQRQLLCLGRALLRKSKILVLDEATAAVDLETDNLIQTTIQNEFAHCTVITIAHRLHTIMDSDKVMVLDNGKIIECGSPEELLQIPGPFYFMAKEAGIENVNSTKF
Sequence of BSEP (O95342 whole entry): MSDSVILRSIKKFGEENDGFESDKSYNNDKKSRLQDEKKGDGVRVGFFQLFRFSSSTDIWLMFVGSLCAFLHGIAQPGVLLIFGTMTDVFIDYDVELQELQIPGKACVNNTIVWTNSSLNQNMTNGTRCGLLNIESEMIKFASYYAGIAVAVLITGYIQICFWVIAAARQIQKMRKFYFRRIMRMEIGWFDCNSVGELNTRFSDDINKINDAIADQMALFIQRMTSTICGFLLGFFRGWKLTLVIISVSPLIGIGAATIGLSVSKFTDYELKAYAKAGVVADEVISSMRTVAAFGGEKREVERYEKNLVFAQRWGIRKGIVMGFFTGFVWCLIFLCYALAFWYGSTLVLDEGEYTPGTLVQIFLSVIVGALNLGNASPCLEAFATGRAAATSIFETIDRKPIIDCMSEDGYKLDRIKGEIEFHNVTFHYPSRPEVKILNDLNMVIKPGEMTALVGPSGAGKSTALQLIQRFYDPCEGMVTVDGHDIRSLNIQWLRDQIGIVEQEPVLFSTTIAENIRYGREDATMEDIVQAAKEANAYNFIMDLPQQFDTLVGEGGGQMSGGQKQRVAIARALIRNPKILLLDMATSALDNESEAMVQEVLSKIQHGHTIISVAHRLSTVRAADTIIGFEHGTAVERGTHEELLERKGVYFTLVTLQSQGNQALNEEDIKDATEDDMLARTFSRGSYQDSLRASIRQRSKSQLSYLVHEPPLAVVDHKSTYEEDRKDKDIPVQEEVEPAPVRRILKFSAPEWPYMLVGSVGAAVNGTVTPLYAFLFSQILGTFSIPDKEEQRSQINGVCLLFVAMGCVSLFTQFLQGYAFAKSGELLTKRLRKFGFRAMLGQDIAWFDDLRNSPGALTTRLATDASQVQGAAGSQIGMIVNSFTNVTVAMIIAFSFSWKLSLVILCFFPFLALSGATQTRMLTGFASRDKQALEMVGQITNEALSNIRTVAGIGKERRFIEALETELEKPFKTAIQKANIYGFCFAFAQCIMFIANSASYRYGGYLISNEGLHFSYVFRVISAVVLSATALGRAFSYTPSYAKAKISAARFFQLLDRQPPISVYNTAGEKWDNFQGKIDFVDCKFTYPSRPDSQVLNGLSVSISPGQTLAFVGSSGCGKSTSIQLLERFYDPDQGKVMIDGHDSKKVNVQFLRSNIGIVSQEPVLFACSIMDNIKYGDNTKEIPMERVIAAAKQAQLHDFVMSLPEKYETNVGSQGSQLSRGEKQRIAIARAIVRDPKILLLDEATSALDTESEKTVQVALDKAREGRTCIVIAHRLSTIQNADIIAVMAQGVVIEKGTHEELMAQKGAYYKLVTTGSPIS

IC50 (MRP2): 22 µM
Compound: CN(C)C(=O)CCSC(SCCC(=O)O)c1cccc(/C=C/c2ccc3ccc(Cl)cc3n2)c1 (centres unmarked) [MK571]

IC50 (OATP1B1 [3]): 3.4 µM | IC50 (OATP1B3 [4]): 3.9 µM
Compound: CO[C@H]1/C=C/O[C@@]2(C)Oc3c(C)c(O)c4c(O)c(c(/C=N/N5CCN(C)CC5)c(O)c4c3C2=O)NC(=O)/C(C)=C\C=C\[C@H](C)[C@H](O)[C@@H](C)[C@@H](O)[C@@H](C)[C@H](OC(C)=O)[C@@H]1C [rifampicin]

More lines, now with the values behind:

Compound: C#CCC(O)(c1ccncc1)c1cc2ccccc2n1S(=O)(=O)c1ccc(O)cc1 (centres unmarked) [compound 9, 4-((2-(1-hydroxy-1-(pyridin-4-yl)but-3-yn-1-yl)-1H-indol-1-yl)sulfonyl)phenol]
EC50 (hPXR): 5.1 µM

Compound: C#CCC(O)(c1ccncc1)c1cc2ccccc2n1S(=O)(=O)c1ccccc1 (racemic) [FKK6, 1-(1-(phenylsulfonyl)-1H-indol-2-yl)-(1-pyridin-4-yl)-but-3-yn-1-ol]
% of control activity at 10 μM (OATP1B3 [1]): 36% | % of control activity at 10 μM (OATP1B1 [2]): 34% | remaining activity at 10 µM (BSEP): 44%

Compound: C#CCC(O)(c1cc[n+]([O-])cc1)c1cc2ccccc2n1S(=O)(=O)c1ccccc1 (centres unmarked) [compound 6, 4-(1-hydroxy-1-(1-(phenylsulfonyl)-1H-indol-2-yl)but-3-yn-1-yl)pyridine 1-oxide]
EC50 (hPXR): 7.8 µM
